Source: patent US20250263370A1 (Tay Therapeutics Limited, priority 2022, published 2025)
Where “and” joins values, the source holds several entries; their conditions need not be identical. Equal entries are not always repeated.

System: collagen-induced arthritis
Test: Collagen-induced arthritis (CIA) model in rats: body weight, paw volume, clinical scores, clinical observations; for Average detailed clinical score, left hind limb: key of the grades not given here; for Average detailed clinical score, right hind limb: key of the grades not given here; for Detailed Clinical Scores, left forelimb: key of the grades not given here; for Detailed Clinical Scores, left hind limb: key of the grades not given here; for Detailed Clinical Scores, right forelimb: key of the grades not given here; for Detailed Clinical Scores, right hind limb: key of the grades not given here; for Detailed Clinical Scores, score: key of the grades not given here; for Mean overall clinical score ± SD: key of the grades not given here; for Overall clinical score: key of the grades not given here
Conditions: for Mean animal paw volume ± SD: group mean; for Detailed Clinical Scores, left forelimb / Detailed Clinical Scores, left hind limb / Detailed Clinical Scores, right forelimb / Detailed Clinical Scores, right hind limb / Detailed Clinical Scores, score: individual animals ID 1-8; for Overall clinical score: individual animals #1-8
[1] = CIA rats, daily P.O. (group 4), day 21
[2] = CIA rats, daily P.O. for 21 days

CNC(=O)c1cc(C(=O)NC2CC2)cn(Cc2ccccc2)c1=O [GSK620]
Average animal paw volume percent change (CIA rats, Day 0, left hind paw (L)): 0.00% | Animal paw volume Day 0 L (CIA rats, Day 0, left paw, individual animals): 1.27 mL (2×) and 1.32 mL (2×) and 1.37 mL (2×) and 1.34 mL and 1.35 mL | Average animal paw volume percent change (CIA rats, Day 0, right hind paw (R)): 0.00% | Animal paw volume Day 0 R (CIA rats, Day 0, right paw, individual animals): 1.27 mL and 1.31 mL and 1.28 mL and 1.37 mL (2×) and 1.33 mL (2×) and 1.34 mL | Average animal paw volume percent change (CIA rats, Day 6, left hind paw (L)): 1.04% | Animal paw volume Day 6 L (CIA rats, Day 6, left paw, individual animals): 1.27 mL and 1.34 mL (2×) and 1.37 mL and 1.36 mL and 1.38 mL and 1.32 mL and 1.35 mL | Average animal paw volume percent change (CIA rats, Day 6, right hind paw (R)): 1.50% | Animal paw volume Day 6 R (CIA rats, Day 6, right paw, individual animals): 1.27 mL and 1.35 mL and 1.38 mL and 1.37 mL and 1.39 mL and 1.33 mL (2×) and 1.34 mL | Average animal paw volume percent change (CIA rats, Day 12, left hind paw (L)): 3.13% | Animal paw volume Day 12 L (CIA rats, Day 12, left paw, individual animals): 1.33 mL (2×) and 1.41 mL and 1.37 mL and 1.42 mL and 1.36 mL and 1.35 mL and 1.38 mL | Average animal paw volume percent change (CIA rats, Day 12, right hind paw (R)): 3.69% | Animal paw volume Day 12 R (CIA rats, Day 12, right paw, individual animals): 1.31 mL and 1.35 mL and 1.42 mL and 1.39 mL (2×) and 1.38 mL (2×) and 1.37 mL | Average animal paw volume percent change (CIA rats, Day 13, left hind paw (L)): 4.09% | Animal paw volume Day 13 L (CIA rats, Day 13, left paw, individual animals): 1.34 mL (2×) and 1.43 mL (2×) and 1.36 mL and 1.37 mL and 1.38 mL and 1.40 mL | Average animal paw volume percent change (CIA rats, Day 13, right hind paw (R)): 6.88% | Animal paw volume Day 13 R (CIA rats, Day 13, right paw, individual animals): 1.40 mL and 1.35 mL and 1.42 mL (2×) and 1.57 mL and 1.37 mL and 1.41 mL and 1.39 mL | Average animal paw volume percent change (CIA rats, Day 14, left hind paw (L)): 17.19% | Animal paw volume Day 14 L (CIA rats, Day 14, left paw, individual animals): 1.55 mL and 1.78 mL and 1.44 mL and 1.36 mL and 1.43 mL and 1.40 mL and 1.73 mL (2×) | Average animal paw volume percent change (CIA rats, Day 14, right hind paw (R)): 26.62% | Animal paw volume Day 14 R (CIA rats, Day 14, right paw, individual animals): 1.74 mL and 1.49 mL and 1.44 mL and 2.11 mL and 1.43 mL and 1.38 mL and 1.99 mL and 1.83 mL | Average animal paw volume percent change (CIA rats, Day 15, left hind paw (L)): 31.82% | Animal paw volume Day 15 L (CIA rats, Day 15, left paw, individual animals): 2.04 mL and 2.03 mL and 1.39 mL and 1.49 mL and 1.52 mL and 1.60 mL and 2.14 mL and 1.75 mL | Average animal paw volume percent change (CIA rats, Day 15, right hind paw (R)): 40.45% | Animal paw volume Day 15 R (CIA rats, Day 15, right paw, individual animals): 2.05 mL and 2.08 mL and 1.38 mL and 2.42 mL and 1.47 mL and 1.56 mL and 2.13 mL and 1.79 mL | Average animal paw volume percent change (CIA rats, Day 18, left hind paw (L)): 87.52% | Animal paw volume Day 18 L (CIA rats, Day 18, left paw, individual animals): 2.72 mL and 2.54 mL and 2.39 mL and 2.87 mL and 2.29 mL and 2.05 mL and 2.66 mL and 2.34 mL | Average animal paw volume percent change (CIA rats, Day 18, right hind paw (R)): 78.42% | Animal paw volume Day 18 R (CIA rats, Day 18, right paw, individual animals): 2.62 mL and 2.45 mL and 2.41 mL and 3.15 mL and 1.46 mL and 2.04 mL and 2.38 mL and 2.34 mL | Average animal paw volume percent change (CIA rats, Day 19, left hind paw (L)): 92.23% | Animal paw volume Day 19 L (CIA rats, Day 19, left paw, individual animals): 2.71 mL and 2.54 mL and 2.32 mL (2×) and 3.06 mL and 2.61 mL and 2.19 mL and 2.63 mL | Average animal paw volume percent change (CIA rats, Day 19, right hind paw (R)): 78.62% | Animal paw volume Day 19 R (CIA rats, Day 19, right paw, individual animals): 2.59 mL and 2.46 mL and 2.33 mL (2×) and 3.15 mL and 1.46 mL and 2.20 mL and 2.36 mL | Average animal paw volume percent change (CIA rats, Day 21, left hind paw (L)): 91.34% | Animal paw volume Day 21 L (CIA rats, Day 21, left paw, individual animals): 2.71 mL and 2.51 mL and 2.34 mL and 3.04 mL and 2.62 mL and 2.21 mL and 2.54 mL and 2.32 mL | Average animal paw volume percent change (CIA rats, Day 21, right hind paw (R)): 78.28% | Animal paw volume Day 21 R (CIA rats, Day 21, right paw, individual animals): 2.63 mL and 2.44 mL and 2.21 mL and 3.08 mL and 1.61 mL and 2.18 mL and 2.37 mL and 2.33 mL | animals with a clinical score of at least 2 in one or more hind limbs (CIA rats, daily P.O. (group 4), day 14): 5/8 | animals with clinical scores of 3 or greater in one or more hind limbs (CIA rats, daily P.O. (group 4), day 18): all animals | animals with a clinical score of 4 in each hind limb [1]: 3/8 | animals with a score of 4 in at least one hind limb [1]: 5/8 | day on which clinical scores started to increase [2]: 14 days | effect on hind paw volume [2]: less effective at preventing an increase in paw volume over the course of the study | average overall clinical score at plateau (CIA rats, daily P.O. for 21 days, around day 18): 8 | animals showing signs of disease (CIA rats, daily P.O., day 12): No animals | animals exhibiting disease (CIA rats, daily P.O., day 13): 1/8 | animals exhibiting disease (CIA rats, daily P.O., day 14): 5/8 | animals exhibiting disease (CIA rats, daily P.O., day 15): 7/8 | animals exhibiting disease (CIA rats, daily P.O., day 18): all animals | Mean animal paw volume ± SD (Day 0, L paw): 1.32 mL | Animal paw volume percent change (Day 0, L paw, individual animals): 0.00% | Mean animal paw volume ± SD (Day 0, R paw): 1.32 mL | Animal paw volume percent change (Day 0, R paw, individual animals): 0.00% | Average detailed clinical score, left forelimb (Day 0, CIA rats): 0.00 | Average detailed clinical score, left hind limb (Day 0, CIA rats): 0.00 | Average detailed clinical score, right forelimb (Day 0, CIA rats): 0.00 | Average detailed clinical score, right hind limb (Day 0, CIA rats): 0.00 | Average detailed clinical score, score (Day 0, CIA rats): 0.00 | Mean overall clinical score ± SD (Day 0, CIA rats): 0 ± 0 | Detailed Clinical Scores, left forelimb (Day 0, CIA rats): 0 | Detailed Clinical Scores, left hind limb (Day 0, CIA rats): 0 | Detailed Clinical Scores, right forelimb (Day 0, CIA rats): 0 | Detailed Clinical Scores, right hind limb (Day 0, CIA rats): 0 | Detailed Clinical Scores, score (Day 0, CIA rats): 0 | Overall clinical score (Day 0, CIA rats): 0 | Mean animal paw volume ± SD (Day 6, L paw): 1.34 mL | Animal paw volume percent change (Day 6, L paw, individual animals): −0.39% and 1.52% and 7.91% and −0.73% and 0.36% and 0.00% (2×) and −0.37% | Mean animal paw volume ± SD (Day 6, R paw): 1.34 mL | Animal paw volume percent change (Day 6, R paw, individual animals): −0.39% and 3.07% and 7.84% and 0.00% (4×) and 1.47% | Average detailed clinical score, left forelimb (Day 6, CIA rats): 0.00 | Average detailed clinical score, left hind limb (Day 6, CIA rats): 0.00 | Average detailed clinical score, right forelimb (Day 6, CIA rats): 0.00 | Average detailed clinical score, right hind limb (Day 6, CIA rats): 0.00 | Average detailed clinical score, score (Day 6, CIA rats): 0.00 | Mean overall clinical score ± SD (Day 6, CIA rats): 0 ± 0 | Detailed Clinical Scores, left forelimb (Day 6, CIA rats): 0 | Detailed Clinical Scores, left hind limb (Day 6, CIA rats): 0 | Detailed Clinical Scores, right forelimb (Day 6, CIA rats): 0 | Detailed Clinical Scores, right hind limb (Day 6, CIA rats): 0 | Detailed Clinical Scores, score (Day 6, CIA rats): 0 | Overall clinical score (Day 6, CIA rats): 0 | Mean animal paw volume ± SD (Day 12, L paw): 1.36 mL | Animal paw volume percent change (Day 12, L paw, individual animals): 4.33% and 0.76% and 11.07% and 0.00% and 3.28% and 1.50% and 2.28% and 1.85% | Mean animal paw volume ± SD (Day 12, R paw): 1.37 mL | Animal paw volume percent change (Day 12, R paw, individual animals): 2.76% and 3.07% and 10.98% and 1.47% (2×) and 3.77% (2×) and 2.25% | Average detailed clinical score, left forelimb (Day 12, CIA rats): 0.00 | Average detailed clinical score, left hind limb (Day 12, CIA rats): 0.00 | Average detailed clinical score, right forelimb (Day 12, CIA rats): 0.00 | Average detailed clinical score, right hind limb (Day 12, CIA rats): 0.00 | Average detailed clinical score, score (Day 12, CIA rats): 0.00 | Mean overall clinical score ± SD (Day 12, CIA rats): 0 ± 0 | Detailed Clinical Scores, left forelimb (Day 12, CIA rats): 0 | Detailed Clinical Scores, left hind limb (Day 12, CIA rats): 0 | Detailed Clinical Scores, right forelimb (Day 12, CIA rats): 0 | Detailed Clinical Scores, right hind limb (Day 12, CIA rats): 0 | Detailed Clinical Scores, score (Day 12, CIA rats): 0 | Overall clinical score (Day 12, CIA rats): 0
